Data on one molecule can be found in US5277897A, “In vivo enhancement of cellular accumulation of lipophilic cationic organometallic compounds by reduction of intramembrane potential” (Brigham and Women's Hospital, priority 1992, dated 1994).

Data set [1] deals with cultured chick heart cells. In words: Effect of TPB on the Ko-dependence of Tc-MIBI influx rates; plasma membrane potential by Goldman flux equation (FIG. 6). Type of data set: cell-based. The procedure: FIG. 6. Effect of TPB on the Ko -dependence of Tc-MIBI influx rates. A) Preparations were preincubated in MEBSS containing the indicated Ko (K-MSA substitution for NaCl) for 1 minute in the absence (.quadrature.) and for 5 minutes in the presence ( ) of valinomycin (1 ug/ml) prior to determination of 2-min Tc-MIBI uptakes in buffer of the same composition. B) Same conditions as A with a 5-minute pre-incubation period in buffers that also contained TPB (10^-5 M) in the absence (o) or presence (·) of valinomycin. C) Resting membrane potential (Em) as a function of Ko. Em was calculated from the Tc-MIBI influx data shown in A in the presence of valinomycin using the Goldman flux equation (Restrepo, D., et al., J. Gen. Physiol. 92:489-507 (1988)): J/Jo =-x/(1-e^x) where x=Em F/RT and J/Jo is the ratio of Tc-MIBI influx rates at Em and zero membrane potential (Ko =130 mM), respectively. RT/F equals 26 mV at 37° C. The solid lines in A and B have no theoretical significance. The solid line in C represents a linear regression of the data: -Em =-67 log Ko +147mV (r=-0.99). […] Each point is the mean ±SEM of 3 determinations.
Monolayers of spontaneously contractile chick ventricular myocardial cells were obtained from disaggregated 10-day old chick embryo hearts by a slight modification of previously published methods (Horres, C. R., et al., In Pinson, A. (ed.), The Heart Cell in Culture, Boca Raton, CRC Press, pp. 77-108 (1987)). Hearts were trimmed of connective tissue and atria, finely minced and serially exposed to 0.024% (w/v) trypsin in Ca^2+ - and Mg^2+ - free Earle's salt solution for 7 minutes at 37° C. Gentle trituration and agitation on an orbital shaker bath aided disaggregation. Cells released from the first exposure were discarded and cells aspirated from the next four exposures were then added to an equal volume of trypsin deactivating solution consisting of ice-cold culture medium. Cells were centrifuged at 400 g for 10 minutes, resuspended and combined in culture medium, counted with a hemocytometer and diluted to yield a suspension of 5×10^5 cells/ml. 12 ml of suspension were incubated in 100 mm plastic culture dishes containing 7 coverslips (25 mm diameter) placed on the bottom of each dish to serve as substrate for cell growth. Cells were maintained in a humidified atmosphere of 5% CO2 /95% air for 3-4 days yielding a confluent layer of spontaneously contractile myocytes on each coverslip.
Radioactive uptake methods have been described in detail (Piwnica-Worms, D., et al, Circ. (in press). Briefly, coverslips with confluent cells were removed from culture media and pre-equilibrated for 40-60 seconds in MEBSS buffer. Uptake and retention experiments were initiated by immersion of coverslips in 60 mm glass Pyrex dishes containing loading solution consisting of buffer with 0.1-0.6 nM [^99m Tc-MIBI] (0.01-0.4 Ci/nmole; 25-100 uCi/ml). Preparations were removed at various times and rinsed three times in 25 ml volumes of ice-cold (2° C.) isotope-free buffer for 8 seconds each to clear extracellular spaces. Preparations and aliquots of the loading buffer and stock solutions were counted in a well-type sodium iodide gamma counter after which cell protein on each coverslip was extracted in 1% sodium dodecylsulfate with 10 mM sodium borate and assayed by the method of Lowry (Lowry, O. H., et al., J. Biol. Chem. 193:265-275 (1951)). Tc-MIBI binding to glass coverslips without cells was used as an estimate of non-specific adhesion to the substrate ([…] obtained with cellular preparations); this value was subtracted from total uptake determinations to derive the cell-associated counts. Use of generator equilibrium equations (Lamson, M. L., et al., i J. Nucl. Med. 16:639-641 (1975)) allowed calculation of absolute moles of Tc-MIBI in solutions and preparations. Results were therefore expressed as fmol cellular Tc-MIBI/mg protein per nM extracellular Tc-MIBI concentration. […]

For data set [2] the following is noted: diagnostic pharmaceutical; cited from earlier work.

As for `[C-]#[N+]CC(C)(C)OC.[C-]#[N+]CC(C)(C)OC.[C-]#[N+]CC(C)(C)OC.[C-]#[N+]CC(C)(C)OC.[C-]#[N+]CC(C)(C)OC.[C-]#[N+]CC(C)(C)OC.[Tc]` [Tc-MIBI, hexakis(methoxyisobutylisonitrile)technetium(I)], in data set [1] (absence of TPB), the “valinomycin sensitivity of Tc-MIBI influx” value is listed as “only modestly valinomycin-sensitive”. In data set [1] (presence of TPB 10^-5 M), the “valinomycin sensitivity of Tc-MIBI influx” value is “highly valinomycin-sensitive”. In addition, in data set [1] (presence of valinomycin), the “Nernstian behavior of Tc-MIBI” value is recorded as “close to ideal Nernstian behavior”. The “correlation coefficient r, Em vs log Ko from Tc-MIBI influx” value in data set [1] (valinomycin 1 ug/ml, no TPB) is recorded as -0.99. Further, in data set [1] (valinomycin 1 ug/ml, no TPB, Goldman flux equation), the “slope of membrane potential vs log Ko from Tc-MIBI influx” value is recorded as -67 mV/decade. In addition, in data set [1] (valinomycin, FIG. 6C), the “regression -Em = -67 log Ko + 147 mV: intercept” value is 147 mV and the “regression -Em = -67 log Ko + 147 mV: slope” value was -67. In addition, the safety in humans entry in data set [2] is “shown to be safe in humans as a diagnostic pharmaceutical”.
